Source: publication PMC2010042, “Effects of pretreatment with phenobarbitone and phenytoin on the pharmacokinetics and toxicity of phenytoin on the pharmacokinetics and toxicity of misonidazole in mice” (British Journal of Cancer, 1979)
Where a name gives a salt, the structure may show the parent alone.

Legend:
[1] = system: BALB/c male mice; conditions: MIS single i.p. 1.117-2.5 g/kg
[2] = system: body temperature; conditions: 1 g/kg MIS; all 3 pretreated groups (saline, phenobarbitone, phenytoin)
[3] = preliminary studies in man
[4] = system: hypoxic tumour cells; set-up: method as in Brown et al., 1979; conditions: at equal tumour concentrations; ref Brown et al., 1979; cited from earlier work
[5] = in vivo; conditions: male, BALB/c, mouse, ip, LD50(7d) (95% confidence limits), MIS single i.p.
[6] = 1 g/kg; ref Brown et al., 1979; cited from earlier work
[7] = system: man; conditions: ref Dische et al., 1977; Urtasun et al., 1978; cited from earlier work
[8] = Pharmacokinetics of MIS and Ro 05-9963 in plasma/blood, brain and tumour by HPLC after 1 g/kg MIS i.p.; conditions: for concentrations in whole blood compared with plasma: control studies
[9] = system: mice; set-up: method as in Brown et al., 1979; conditions: ref Brown et al., 1979; cited from earlier work
[10] = set-up: method as in Adams et al., 1976; conditions: ref Adams et al., 1976; cited from earlier work
[11] = Pharmacokinetics of MIS and Ro 05-9963 after 1 g/kg MIS i.p. in B10 mice bearing the MC6B tumour; conditions: enzyme inducers; B10 strain
[12] = system: microsomal drug-metabolizing enzymes; assay: Pentobarbitone sleeping-time after pretreatment (index of microsomal enzyme induction); type: in vivo, tumour-free BALB/c mice; conditions: 60 mg/kg pentobarbitone i.p. on Day 9 after pretreatment regime
[13] = system: MC6B and EMT6 tumours; assay: Tumour volume in pretreated mice; type: in vivo; conditions: usually not significant (P > 0.05)
[14] = Body weight during pretreatment regime
[15] = system: liver weight; assay: Liver/body weight ratio after pretreatment; type: in vivo, tumour-free BALB/c mice; conditions: Day 9 after pretreatment regime
[16] = Approximate acute LD50 of single doses of phenobarbitone and phenytoin; conditions: male, BALB/c, mouse, in vivo
[17] = phenobarbitone or phenytoin pretreatment (Discussion)

COCC(O)Cn1ccnc1[N+](=O)[O-] (stereo not shown) [MIS, 1-(2-nitroimidazol-1-yl)-3-meth-oxypropan-22-ol]
time of deaths after treatment [1]: 3 to 4 days | change in body temperature after MIS [2]: marked decrease in temperature | MIS t1/2 and AUC with phenytoin therapy [3]: both reduced | radiosensitizing efficiency of MIS and Ro 05-9963 [4]: equally good radiosensitizers | LD50 at 7 days ([5]; pretreatment phenobarbitone): 1900 mg/kg | LD50 at 7 days ([5]; pretreatment phenytoin): 1780 mg/kg | LD50 at 7 days ([5]; pretreatment saline (control)): 1540 mg/kg | t1/2 of MIS after bilateral kidney ligation [6]: prolonged after bilateral kidney ligation | peripheral neuropathy in man [7]: dose-limiting toxicity | reduction of apparent elimination half-life (t1/2) for MIS ([8]; 1 g/kg MIS i.p., phenobarbitone or phenytoin pretreatment vs control, plasma, brain and tumour): 20-67% | decrease of area under the curve (AUC) for MIS ([8]; 1 g/kg MIS i.p., phenobarbitone or phenytoin pretreatment, plasma, brain and tumour): 23-49% | concentrations in whole blood compared with plasma [8]: identical | Kp ([8]; male, BALB/c, mouse, tumour and brain / plasma, ip, 1 g/kg): ~0.5 | effect of pretreatment on peak MIS concentration ([8]; phenobarbitone and phenytoin pretreatment, plasma, brain or tumour): did not alter | decrease of blood (or plasma) MIS AUC [8, 17]: 25- 60% | shortening of apparent t1/2 for MIS elimination from blood or plasma [8, 17]: 35-60%

O=[N+]([O-])c1nccn1CC(O)CO (stereo not shown) [Ro 05-9963, 1-(2-nitroimidazol-1-yl)-2,3-propandiol]
LD50 compared with MIS [9]: higher LD50 than MIS | radiosensitizing efficiency of MIS and Ro 05-9963 [4]: equally good radiosensitizers | lipophilicity compared with MIS [10]: considerably less lipophilic than MIS | increase of blood (or plasma) AUC for metabolite Ro 05-9963 [11]: 100% | concentrations in whole blood compared with plasma [8]: identical | increase of blood (or plasma) AUC for metabolite Ro 05-9963 ([8]; enzyme inducers, BALB/c mice): 10-60%

CCC1(c2ccccc2)C(=O)NC(=O)NC1=O [phenobarbitone]
pentobarbitone sleeping-time, % of untreated control [12]: 36% | pentobarbitone sleeping-time, mean [12]: 26 min | tumour volumes lower than the saline controls [13]: up to 10% | initial weight loss during pretreatment regime ([14]; normally completely regained by Day 9): up to 10%

O=C1NC(=O)C(c2ccccc2)(c2ccccc2)N1 [phenytoin, 5.5-diphenylhydantoin, sodium salt]
liver wt/body wt, % of untreated control [15]: 124% | pentobarbitone sleeping-time, % of untreated control [12]: 30% | tumour volumes lower than the saline controls [13]: up to 10% | weight loss during pretreatment ([14]; mouse, in vivo): little or no weight loss | LD50 [16]: 200 to 240 mg/kg
